Data: patent US20090062294A1, “HETEROARYL-SUBSTITUTED UREA MODULATORS OF FATTY ACID AMIDE HYDROLASE” (priority 2007, published 2009)
Where a name gives a salt, the structure may show the parent alone.

Experiments:
FAAH = molecular target: T1, FAAH (Homo sapiens, UniProt O00519); experiment: Assay Method 1: FAAH assay, 3H-anandamide hydrolysis in homogenate of T84 cells or SK-N-MC cells transfected with human FAAH; type: biochemical; settings: average of results, > = solubility limit or highest concentration tested
T1 sequence (O00519 1-579): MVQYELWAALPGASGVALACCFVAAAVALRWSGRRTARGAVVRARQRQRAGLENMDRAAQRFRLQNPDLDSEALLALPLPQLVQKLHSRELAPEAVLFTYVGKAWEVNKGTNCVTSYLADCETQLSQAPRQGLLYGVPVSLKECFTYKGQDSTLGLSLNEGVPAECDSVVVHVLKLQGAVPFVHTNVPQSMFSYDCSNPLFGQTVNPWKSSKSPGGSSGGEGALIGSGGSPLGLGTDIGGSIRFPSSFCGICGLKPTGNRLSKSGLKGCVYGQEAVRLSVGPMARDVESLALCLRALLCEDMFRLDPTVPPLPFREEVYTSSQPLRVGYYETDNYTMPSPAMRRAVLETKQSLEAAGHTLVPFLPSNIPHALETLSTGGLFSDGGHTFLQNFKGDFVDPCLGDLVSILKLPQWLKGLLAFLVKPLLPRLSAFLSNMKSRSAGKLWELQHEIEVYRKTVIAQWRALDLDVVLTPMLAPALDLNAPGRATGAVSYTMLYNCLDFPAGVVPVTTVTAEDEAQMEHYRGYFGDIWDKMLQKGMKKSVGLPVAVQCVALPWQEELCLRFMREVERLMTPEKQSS
Experimental: A. Transfection of Cells with Human FAAH
(§1) A 10-cm tissue culture dish with a confluent monolayer of SK—N-MC cells was split 2 days (d) prior to transfection. Using sterile technique, the media was removed and the cells were detached from the dish by the addition of trypsin. One fifth of the cells were then placed onto a new 10-cm dish. Cells were grown in a 37° C. incubator with 5% CO2 in Minimal Essential Media Eagle with 10% Fetal Bovine Serum. After 2 d, cells were approximately 80% confluent. These cells were removed from the dish with trypsin and pelleted in a clinical centrifuge. The pellet was re-suspended in 400 μL complete media and transferred to an electroporation cuvette with a 0.4 cm gap between the electrodes. Supercoiled human FAAH cDNA (1 μg) was added to the cells and mixed. The voltage for the electroporation was set at 0.25 kV, and the capacitance was set at 960 μF. After electroporation, the cells were diluted into complete media (10 mL) and plated onto four 10-cm dishes. Because of the variability in the efficiency of electroporation, four different concentrations of cells were plated. The ratios used were 1:20, 1:10, and 1:5, with the remainder of the cells being added to the fourth dish. The cells were allowed to recover for 24 h before adding the selection media (complete media with 600 μg/mL G418). After 10 d, dishes were analyzed for surviving colonies of cells. Dishes with well-isolated colonies were used. Cells from individual colonies were isolated and tested.
(§2) T84 frozen cell pellets or transfected SK—N-MC cells (contents of 1×15 cm culture dishes) were homogenized in 50 mL of FAAH assay buffer (125 mM Tris, 1 mM EDTA, 0.2% Glycerol, 0.02% Triton X-100, 0.4 mM Hepes, pH 9). The assay mixture consisted of 50 μL of the cell homogenate, 10 μL of the test compound, and 40 μL of anandamide [1-^3H-ethanolamine] (^3H-AEA, Perkin-Elmer, 10.3 Ci/mmol), which was added last, for a final tracer concentration of 80 nM. The reaction mixture was incubated at rt for 1 h. During the incubation, 96-well Multiscreen filter plates (catalog number MAFCNOB50; Millipore, Bedford, Mass., USA) were loaded with 25 μL of activated charcoal (Multiscreen column loader, catalog number MACL09625, Millipore) and washed once with 100 μL of MeOH. Also during the incubation, 96-well DYNEX MicroLite plates (catalog number NL510410) were loaded with 100 μL of MicroScint40 (catalog number 6013641, Packard Bioscience, Meriden, Conn., USA). After the 1 h incubation, 60 μL of the reaction mixture were transferred to the charcoal plates, which were then assembled on top of the DYNEX plates using Centrifuge Alignment Frames (catalog number MACF09604, Millipore). The unbound labeled ethanolamine was centrifuged through to the bottom plate (5 min at 2000 rpm), which was preloaded with the scintillant, as described above. The plates were sealed and left at rt for 1 h before counting on a Hewlett Packard TopCount.
(§3) Compounds were tested in free base, hydrochloride salt, and/or trifluoroacetic acid salt forms.

rat FAAH = molecular target: T2, rat FAAH (Rattus norvegicus, UniProt P97612); experiment: Assay Method 2: FAAH assay, 3H-anandamide hydrolysis in homogenate of SK-N-MC cells transfected with rat FAAH; type: biochemical; settings: average of results, > = solubility limit or highest concentration tested
T2 sequence (P97612 1-579): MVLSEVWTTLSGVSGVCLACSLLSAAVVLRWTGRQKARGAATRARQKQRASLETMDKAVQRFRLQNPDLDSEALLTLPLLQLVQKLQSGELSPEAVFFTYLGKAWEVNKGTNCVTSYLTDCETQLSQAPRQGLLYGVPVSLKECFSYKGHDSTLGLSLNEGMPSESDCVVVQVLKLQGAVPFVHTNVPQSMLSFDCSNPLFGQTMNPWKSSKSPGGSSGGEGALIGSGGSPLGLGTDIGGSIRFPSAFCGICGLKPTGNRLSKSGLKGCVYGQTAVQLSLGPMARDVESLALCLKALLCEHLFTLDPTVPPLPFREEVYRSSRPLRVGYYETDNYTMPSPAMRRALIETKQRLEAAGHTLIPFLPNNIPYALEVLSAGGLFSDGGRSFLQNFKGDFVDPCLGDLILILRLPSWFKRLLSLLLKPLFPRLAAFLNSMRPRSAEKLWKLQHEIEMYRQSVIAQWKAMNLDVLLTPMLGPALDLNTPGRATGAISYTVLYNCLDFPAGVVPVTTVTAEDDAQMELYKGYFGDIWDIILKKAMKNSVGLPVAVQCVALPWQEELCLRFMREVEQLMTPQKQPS
Experimental: A. Transfection of Cells with Rat FAAH
as §1, with “rat” for “human”
as §2, §3

Structure (SMILES)	IC50 (FAAH)	IC50 (rat FAAH)
O=C(Nc1cccc2nsnc12)N1CCN(Cc2cccc(Oc3ccc(Cl)c(Cl)c3)c2)CC1 [Example 38, 4-[3-(3,4-Dichloro-phenoxy)-benzyl]-piperazine-1-carboxylic acid benzo[1,2,5]thiadiazol-4-ylamide trifluoroacetic acid salt]	70 nM	9 nM
O=C(Nc1ccon1)N1CCN(Cc2cccc(Oc3ccccc3Cl)c2)CC1 [Example 140, 4-[3-(2-Chlorophenoxy)benzyl]-N-isoxazol-3-ylpiperazine-1-carboxamide]	700 nM	6000 nM
O=C(Nc1ccon1)N1CCN(Cc2ccc(Br)c(F)c2)CC1 [Example 151, 4-(4-Bromo-3-fluoro-benzyl)-piperazine-1-carboxylic acid isoxazol-3-ylamide]	3000 nM	6000 nM
N#Cc1ccc(Oc2cccc(CN3CCN(C(=O)Nc4noc5ccccc45)CC3)c2)cc1C(F)(F)F [Example 128, N-1,2-Benzisoxazol-3-yl-4-{3-[4-cyano-3-(trifluoromethyl)phenoxy]benzyl}piperazine-1-carboxamide]	230 nM	400 nM
O=C(Nc1noc2ccccc12)N1CCN(Cc2cccc(C#Cc3cccc(Cl)c3)c2)CC1 [Example 73, N-1,2-Benzisoxazol-3-yl-4-{3-[(3-chlorophenyl)ethynyl]benzyl}-piperazine-1-carboxamide]	24 nM	33 nM
O=C(Nc1noc2ccccc12)N1CCN(Cc2cccc(C#CC3CCCCC3)c2)CC1 [Example 70, N-1,2-Benzisoxazol-3-yl-4-[3-(cyclohexylethynyl)benzyl]-piperazine-1-carboxamide]	46 nM	46 nM
O=C(Nc1nccnc1Cl)N1CCN(Cc2cccc(Oc3ccc(Cl)cc3)c2)CC1 [Example 243, 4-[3-(4-Chlorophenoxy)benzyl]-N-(3-chloropyrazin-2-yl)piperazine-1-carboxamide]	2 nM	9 nM
N#Cc1ccc(Oc2cccc(CN3CCN(C(=O)Nc4ccon4)CC3)c2)cc1 [Example 152, 4-[3-(4-Cyano-phenoxy)-benzyl]-piperazine-1-carboxylic acid isoxazol-3-ylamide]	330 nM	5000 nM
O=C(Nc1ccc(Cl)nn1)N1CCC(Cc2ccc3ccccc3c2)CC1 [Example 9, 4-Naphthalen-2-ylmethyl-piperidine-1-carboxylic acid (6-chloro-pyridazin-3-yl)-amide]	552 nM	57 nM
O=C(Nc1noc2ccccc12)N1CCN(Cc2cc3ccccc3o2)CC1 [Example 126, 4-Benzofuran-2-ylmethyl-piperazine-1-carboxylic acid benzo[d]isoxazol-3-ylamide]	60 nM	200 nM
CCn1nccc1NC(=O)N1CCN(Cc2cccc(Oc3ccc(Cl)cc3)c2)CC1 [Example 193, 4-[3-(4-Chloro-phenoxy)-benzyl]-piperazine-1-carboxylic acid (2-ethyl-2H-pyrazol-3-yl)-amide trifluoroacetic acid salt]	327 nM	6000 nM
O=C(Nc1cc[nH]n1)N1CCN(Cc2cccc(Oc3cccc(C(F)(F)F)c3)c2)CC1 [Example 55, 4-[3-(3-Trifluoromethyl-phenoxy)-benzyl]-piperazine-1-carboxylic acid (1H-pyrazol-3-yl)-amide trifluoroacetic acid salt]	7750 nM	764 nM
O=C(Nc1ccon1)N1CCN(Cc2cccc(Oc3ccc(Cl)c(Cl)c3)c2)CC1 [Example 47, 4-[3-(3,4-Dichloro-phenoxy)-benzyl]-piperazine-1-carboxylic acid isoxazol-3-ylamide trifluoroacetic acid salt]	1140 nM	66 nM
O=C(Nc1ccon1)N1CCN(Cc2ccc3ccccc3c2)CC1 [Example 144, N-Isoxazol-3-yl-4-(naphthalen-2-ylmethyl)piperazine-1-carboxamide]	350 nM	3000 nM
O=C(Nc1cnccn1)N1CCN(Cc2ccc(Cl)c(Cl)c2)CC1 [Example 220, 4-(3,4-Dichlorobenzyl)-N-pyrazin-2-ylpiperazine-1-carboxamide]	320 nM	430 nM
O=C(Nc1cnccn1)N1CCN(Cc2ccc3ccccc3c2)CC1 [Example 213, 4-(Naphthalen-2-ylmethyl)-N-pyrazin-2-ylpiperazine-1-carboxamide]	100 nM	320 nM
O=C(Nc1cnccn1)N1CCN(Cc2cccc(Oc3cccc(C(F)(F)F)c3)c2)CC1 [Example 60, 4-[3-(3-Trifluoromethyl-phenoxy)-benzyl]-piperazine-1-carboxylic acid pyrazin-2-ylamide trifluoroacetic acid salt]	166 nM	16 nM
O=C(Nc1noc2ccccc12)N1CCN(Cc2cccc(Oc3ccc4c(c3)OC(F)(F)O4)c2)CC1 [Example 131, N-1,2-Benzisoxazol-3-yl-4-{3-[(2,2-difluoro-1,3-benzodioxol-5-yl)oxy]benzyl}piperazine-1-carboxamide]	7 nM	4 nM
CCCCc1ccc(Oc2cccc(CN3CCN(C(=O)Nc4noc5ccccc45)CC3)c2)cc1 [Example 209, 4-[3-(4-Butyl-phenoxy)-benzyl]-piperazine-1-carboxylic acid benzo[d]isoxazol-3-ylamide]	9 nM	2 nM
